Test results as given in patent US12344878B2, “Artificial organelles for enzymatic cofactor reduction” (priority 2020, dated 2025).
Read-outs that look alike come from different tables or passages of the source.

Experiments:
Photosystem II (PSII) = target: T1, Photosystem II (PSII) (Synechocystis sp., UniProt P09192+P16033); assay: Oxygen evolution assay (Clarke-type electrode); assay type: biochemical, Synechocystis sp. PCC6803
T1 construct: made in house; host or cells: Synechocystis sp; PCC6803 strain with His-tagged CP47; thylakoid membranes
Description: Oxygen evolution assays were performed using 50 mM MES, pH 6.5, 10 mM NaCl, 5 mM MgCl2, 20 mM CaCl2 using a Clarke-type electrode (Hansatech Instruments, Ltd.). 2 mM ferricyanide and either 300 μM 2,5-dicholor-1,4-benzoquinone (DCBQ) or 50 μM DQ was added as electron acceptor with […] of ChlA of the sample to a final volume of 1.5 mL. The reaction took place at 28° C. and was initiated by red light at 2800 μmol s^−1 m^−2.

CMI:PSII proteoliposomes [1] = test system: T2, CMI:PSII proteoliposomes; assay: NAD+ photoreduction assay of CMI:PSII proteoliposomes (NADH fluorescence); assay type: biochemical, E. coli (CMI), Synechocystis sp. PCC6803 (PSII); conditions: for Max Rate NAD^+ Photoreduction: 4PSII:1CMI proteoliposomes; for Sum NADH: production plus remaining
T2 construct: made in house; host or cells: CMI from E. coli strain ANN0221; PSII from Synechocystis sp; PCC6803 (His-tagged CP47); co-reconstituted in E. coli lipid liposomes
Description: (§1) Photoreduction by CMI:PSII proteoliposomes were routinely performed at 28° C. in 5 mM MES, pH 6.5, 50 mM KCl, 5 mM MgCl2 2 mM CaCl2, 25 µL of proteoliposomes were added to 175 μL assay mixture containing 50 μM DQ, 0.2 μM valinomycin, 2.5 μM ACMA; and for decoupling and inhibition assays: 5 μM CCCP and 100 μM DCMU, respectively. The potassium ionophore, valinomycin, was added to collapse the electrical component of the PMF and generate a higher ΔpH. Without being bound by any theory, the reverse electron transfer activity of CMI is believed to be more dependent on the proton component of the […] than the electrical component of the […]. Saturating white light >2200 μmol photons m^−2 s^−1 was provided by a 100 W Mercury lamp. The light was passed through a 2 L water bath. The reaction was monitored using Flexstation 3 (Molecular Devices, Inc.), NADH concentration was monitored by fluorescence spectroscopy (λexictation=340 nm, λemission=455 nm), while the proton gradient generation was determined by the change in ACMA signal (λexictation=410 nm, λemission=480 nm).

CMI:PSII proteoliposomes [2] = test system: T2, CMI:PSII proteoliposomes; assay: Proton gradient (ACMA signal) of CMI:PSII proteoliposomes; assay type: biochemical, E. coli (CMI), Synechocystis sp. PCC6803 (PSII); conditions: 100 μM DCMU
Description: as §1

[3] = test system: bacteriorhodopsin (bR) and CMI proteoliposomes; assay type: biochemical, H. salinarum (bR), E. coli (CMI); conditions: 0.2 μM valinomycin compared with 0.1 μM
Description: (§2) Liposome preparation, enzyme reconstitution, NAD^+ photoreduction, and proton pumping assays were performed as described above.
(§3) The pH-sensitive fluorophore 9-amino-6-chloro-2-methoxyacridine (ACMA) was used to conduct proton pumping assays. The rates of ACMA quenching were measured for CMI bR independently. Because of the non-linear relationship between ACMA quenching and ΔpH [54-55], the rate of ACMA quenching and de-quenching were calculated using the linear region of the ACMA signal, between 40-70% of the baseline.

[4] = target: T3, Respiratory Complex I (CMI, NADH:ubiquinone oxidoreductase) (Escherichia coli, UniProt P0AFC7+P0AFD4+P31979+P33599); assay: Complex I proton pumping (ACMA quenching) in CMI proteoliposomes; assay type: biochemical, E. coli
T3 construct: made in house; host or cells: E. coli overexpression strain ANN0221
Description: (§4) Complex I NADH:DQ oxidoreductase and proton pumping activity were measured simultaneously using a Flexstation 3 (Molecular Devices, Inc.). NADH:DQ oxidoreductase activity was monitored through NADH oxidation by fluorescence spectroscopy (λexictation=340 nm, λemission=455 nm), while proton gradient generation was determined by quenching of ACMA (λexictation=410 nm, λemission=480 nm). The assay was conducted at 28° C. in the corresponding buffer, 25 μL of proteoliposomes were added to 175 μL assay mixture containing 100 μM DQ, 200 μM NADH, 0.2 μM valinomycin, 2.5 μM ACMA and for decoupling and inhibition assays 5 μM CCCP (carbonyl cyanide 3-chlorophenylhydrazone) and 50 μM Piericidin A, respectively. The sample was incubated for 5 min prior to reaction initiation by addition of NADH. When conducting inhibition assays proteoliposomes were incubated for 5 min with Piericidin A before the addition of DQ.

[5] = target: T3, Respiratory Complex I (CMI, NADH:ubiquinone oxidoreductase); assay type: biochemical, E. coli
Description: as §4

[6] = target: (+)CMI-(+)bR proteoliposomes (Escherichia coli, UniProt P0AFC7+P0AFD4+P31979+P33599); assay type: biochemical, E. coli (CMI), H. salinarum (bR)
Description: as §1, §2
In this study, an engineered artificial organelle capable of photoreduction of NAD^+ was created by vectorially integrating bR from H. salinarum and CMI from E. coli into proteoliposomes. The power source for this system is light which activates the proton translocation by bR. As a result, accumulation of H^+ within the lumen creates a proton motive force (PMF). The PMF is requisite to diminish the thermodynamic gap of the standard redox potentials between NADH/NAD^+ and QH2/Q. Reducing the thermodynamic barrier enables CMI to perform reverse electron transfer (RET) from QH2 to NAD^+ [10, 46].
The experiments were initially conducted to determine whether the (+)CMI-(+)bR proteoliposomes could reduce NAD^+ and find suitable assay conditions.

[7] = target: T4, bacteriorhodopsin (bR) and CMI proteoliposomes (Escherichia coli, UniProt P0AFC7+P0AFD4+P31979+P33599); assay type: biochemical, H. salinarum (bR), E. coli (CMI); conditions: 50 μM Piericidin A
T4 construct: Bacteriorhodopsin from H. salinarum was purified using tangential flow filtration; made in house; host or cells: bR purified from H. salinarum; CMI from E. coli strain ANN0221; co-reconstituted in liposomes
Description: as §2, §3

[8] = CMI reconstituted with detergent at 7 mM
[9] = PSII reconstituted with detergent at 7 mM
[10] = CMI reconstituted with detergent at 3.8 mM
[11] = CMI reconstituted with detergent at 18 mM
[12] = CMI reconstituted with detergent at 26 mM
[13] = CMI reconstituted with detergent at 1.8 mM

CN(C)C(=O)Nc1ccc(Cl)c(Cl)c1 [DCMU, 3-(3,4-dicholorophenyl)-1,1-dimethylurea]
inhibition of isolated PSII (Photosystem II (PSII); 100 μM DCMU (FIG. 10)): 70% | average rate of NADH production after removal of light (CMI:PSII proteoliposomes [1]; 100 μM DCMU inhibited sample): −170.65±2.26 nmol min^−1 mg CMI^−1 | rate of NADH production of inhibited sample relative to non-inhibited sample (CMI:PSII proteoliposomes [1]; 100 μM DCMU, illumination minus post illumination rates): 39.05%±7.64 | maximum rate of NADH production under illumination (CMI:PSII proteoliposomes [1]; proteoliposomes incubated 5 minutes with 100 μM DCMU): 6.44±24.97 nmol min^−1 mg CMI^−1 | ACMA signal increase relative to non-inhibited sample (CMI:PSII proteoliposomes [2]): approximately 60%

CC(C)[C@@H]1NC(=O)[C@H](C)OC(=O)[C@@H](C(C)C)NC(=O)[C@@H](C(C)C)OC(=O)[C@H](C(C)C)NC(=O)[C@H](C)OC(=O)[C@@H](C(C)C)NC(=O)[C@@H](C(C)C)OC(=O)[C@H](C(C)C)NC(=O)[C@H](C)OC(=O)[C@@H](C(C)C)NC(=O)[C@@H](C(C)C)OC1=O [valinomycin]
ACMA quenching [3]: quenched the ACMA more than 0.1 μM

C[C@H](CCC(=O)NCCC[N+](C)(C)CCCS(=O)(=O)[O-])[C@H]1CC[C@H]2[C@@H]3[C@H](O)C[C@@H]4C[C@H](O)CC[C@]4(C)[C@H]3C[C@H](O)[C@]12C [CHAPS, 3-[(3-cholamidopropyl)dimethylammonio]-1-propanesulfonate]
ACMA Fluorescence decrease ([4]; CMI reconstituted with detergent at 3.0 mM): 0.58% | ACMA Fluorescence decrease [4, 8]: 74.54% | O2 Evolution (mean ± S.D.) (Photosystem II (PSII); PSII reconstituted with detergent at 3.0 mM): 178.08 ± 9.91 umol O2 hr^−1 ug ChIA | O2 Evolution (mean ± S.D.) (Photosystem II (PSII); [9]): 509.24 ± 256.84 umol O2 hr^−1 ug ChIA

CCCCCCCCCCCCO[C@@H]1O[C@H](CO)[C@@H](O[C@H]2O[C@H](CO)[C@@H](O)[C@H](O)[C@H]2O)[C@H](O)[C@H]1O [DDM, n-dodecyl-β-D-maltopyranoside]
NADH:DQ oxidoreductase activity [5, 10]: 13.43 umol min^−1 mg CMI^−1 | NADH:DQ oxidoreductase activity [5, 8]: 0.76 umol min^−1 mg CMI^−1 | ACMA Fluorescence decrease [4, 10]: 1.46% | ACMA Fluorescence decrease [4, 8]: 0.32% | O2 Evolution (mean ± S.D.) (Photosystem II (PSII); PSII reconstituted with detergent at 3.8 mM): 565.87 ± 25.19 umol O2 hr^−1 ug ChIA | O2 Evolution (mean ± S.D.) (Photosystem II (PSII); PSII reconstituted with detergent at 6.8 mM): 396.55 ± 69.76 umol O2 hr^−1 ug ChIA

C/C=C(\C)[C@H](O)[C@H](C)/C=C(C)/C=C/C/C(C)=C/Cc1nc(OC)c(OC)c(O)c1C [Piericidin A]
inhibition of NADH:DQ oxidoreductase specific activity of CMI proteoliposomes ([5]; 50 μM Piericidin A): > 95% | inhibition of NADH oxidation by CMI ([5]; 50 μM Piericidin A, (+)CMI-(−)bR proteoliposomes (FIG. 13)): > 95% | effect on NAD^+ reductase rates ([6]; 50 μM Piericidin A): significantly increased | NAD^+ reductase rate relative to samples with no Piericidin A ([6]; 50 μM Piericidin A, 0.0 mM DTT): ~3 times | NAD^+ reductase rate relative to samples with no Piericidin A ([6]; 50 μM Piericidin A, 1.0 mM DTT): ~4 times | reduction of the rate of NADH produced ([6]; after 35 minutes, Piericidin A present): 95% | rate of ACMA signal increase during photoreduction ([7]; 0.0 mM DTT): 3.96±0.64 ACMA % min^−1 | rate of ACMA signal increase during photoreduction ([7]; 1.0 mM DTT): 3.15±0.94 ACMA % min^−1

CCCCCCCCO[C@@H]1O[C@H](CO)[C@@H](O)[C@H](O)[C@H]1O [OG, n-octyl-β-D-glucoside]
NADH:DQ oxidoreductase activity [5, 11]: 5.24 umol min^−1 mg CMI^−1 | NADH:DQ oxidoreductase activity [5, 12]: 8.95 umol min^−1 mg CMI^−1 | ACMA Fluorescence decrease [4, 11]: 0.71% | ACMA Fluorescence decrease [4, 12]: −0.16% | O2 Evolution (mean ± S.D.) (Photosystem II (PSII); PSII reconstituted with detergent at 18 mM): 306.95 ± 44.24 umol O2 hr^−1 ug ChIA | O2 Evolution (mean ± S.D.) (Photosystem II (PSII); PSII reconstituted with detergent at 26 mM): 481.01 ± 192.16 umol O2 hr^−1 ug ChIA

N#CC(C#N)=NNc1cccc(Cl)c1 [CCCP, carbonyl cyanide 3-chlorophenylhydrazone]
change in ACMA fluorescence of CMI proteoliposomes ([4]; incubation with 5 μM CCCP): minimal change in ACMA fluorescence | response of NADH production [6]: negative and significant response

NC(=O)C1=CN([C@@H]2O[C@H](COP(=O)(O)OP(=O)(O)OC[C@H]3O[C@@H](n4cnc5c(N)ncnc54)[C@H](O)[C@@H]3O)[C@@H](O)[C@H]2O)C=CC1 [NADH]
Max Production of NADH (CMI:PSII proteoliposomes [1]; 100 μM NADH injected): 8.04 µM | NADH remaining prior to photoreduction (CMI:PSII proteoliposomes [1]; 100 μM NADH injected): 2.05 µM | Max Rate NAD^+ Photoreduction (CMI:PSII proteoliposomes [1]; 100 μM NADH injected): 132.30 nmol min^−1 mg CMI^−1 | Sum NADH (CMI:PSII proteoliposomes [1]; 100 μM NADH injected): 10.08 µM | Max Production of NADH (CMI:PSII proteoliposomes [1]; 200 μM NADH injected): 9.10 µM | NADH remaining prior to photoreduction (CMI:PSII proteoliposomes [1]; 200 μM NADH injected): 4.10 µM | Max Rate NAD^+ Photoreduction (CMI:PSII proteoliposomes [1]; 200 μM NADH injected): 213.32 nmol min^−1 mg CMI^−1 | Sum NADH (CMI:PSII proteoliposomes [1]; 200 μM NADH injected): 13.20 µM | Max Production of NADH (CMI:PSII proteoliposomes [1]; 300 μM NADH injected): 6.48 µM | NADH remaining prior to photoreduction (CMI:PSII proteoliposomes [1]; 300 μM NADH injected): 8.19 µM | Max Rate NAD^+ Photoreduction (CMI:PSII proteoliposomes [1]; 300 μM NADH injected): 178.71 nmol min^−1 mg CMI^−1 | Sum NADH (CMI:PSII proteoliposomes [1]; 300 μM NADH injected): 14.67 µM | Max Production of NADH (CMI:PSII proteoliposomes [1]; 400 μM NADH injected): 1.53 µM | NADH remaining prior to photoreduction (CMI:PSII proteoliposomes [1]; 400 μM NADH injected): 13.41 µM | Max Rate NAD^+ Photoreduction (CMI:PSII proteoliposomes [1]; 400 μM NADH injected): 57.45 nmol min^−1 mg CMI^−1 | Sum NADH (CMI:PSII proteoliposomes [1]; 400 μM NADH injected): 14.94 µM

polyethylene glycol p-(1,1,3,3-tetramethylbutyl)-phenyl ether [Triton X-100 ™]
NADH:DQ oxidoreductase activity [5, 13]: −0.00 umol min^−1 mg CMI^−1 | NADH:DQ oxidoreductase activity [5, 8]: 9.05 umol min^−1 mg CMI^−1 | ACMA Fluorescence decrease [4, 13]: −2.75% | ACMA Fluorescence decrease [4, 8]: −4.90% | O2 Evolution (mean ± S.D.) (Photosystem II (PSII); PSII reconstituted with detergent at 1.8 mM): 530.72 ± 2.53 umol O2 hr^−1 ug ChIA | O2 Evolution (mean ± S.D.) (Photosystem II (PSII); [9]): 218.69 ± 67.01 umol O2 hr^−1 ug ChIA
